Source: ChEMBL document CHEMBL5725610, “Phosphonate compounds” (2018)

Biological target: Protease (Human immunodeficiency virus 1, UniProt Q9YQ12)
Sequence (Q9YQ12 whole entry): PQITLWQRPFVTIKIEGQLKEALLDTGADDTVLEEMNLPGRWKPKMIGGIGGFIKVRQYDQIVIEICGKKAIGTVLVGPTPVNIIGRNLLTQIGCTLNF

Compound `Nc1ncnc2c1ncn2CCOCP(=O)(O)O` [ADEFOVIR] has an EC50 of 16 µM.
